From ChEMBL document CHEMBL1201862, “PubChem BioAssay data set” (2004)
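Dose response: 5 concentrations. Exposure: 48 h. Format: 96-well plates. Endpoint: linear interpolation; highest concentration if not reached. The concentration for 50% growth inhibition is given as GI50.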 Activity calls are given as the source filed them. Rule as the data show it: active = GI50 up to about 1.1 µM and inactive = higher.

Columns and labels:
Assay in all cases: NCI-60 cell line screen, 48 h
ACHN = system: ACHN
SNB-75 = system: SNB-75
SK-OV-3 = system: SK-OV-3
T47D = system: T47D
OVCAR-3 = system: OVCAR-3
TK-10 = system: TK-10
OVCAR-5 = system: OVCAR-5
UACC-62 = system: UACC-62
OVCAR-4 = system: OVCAR-4
UACC-257 = system: UACC-257
CAKI-1 = system: CAKI-1
HCT-116 = system: HCT-116
HT-29 = system: HT-29
SK-MEL-5 = system: SK-MEL-5
HOP-62 = system: HOP-62
Malme-3M = system: Malme-3M
EKVX = system: EKVX
SW-620 = system: SW-620
M14 = system: M14
LOX IMVI = system: LOX IMVI

SMILES	GI50 (ACHN)	GI50 (SNB-75)	GI50 (SK-OV-3)	GI50 (T47D)	GI50 (OVCAR-3)	GI50 (TK-10)	GI50 (OVCAR-5)	GI50 (UACC-62)	GI50 (OVCAR-4)	GI50 (UACC-257)	GI50 (CAKI-1)	GI50 (HCT-116)	GI50 (HT-29)	GI50 (SK-MEL-5)	GI50 (HOP-62)	GI50 (Malme-3M)	GI50 (EKVX)	GI50 (SW-620)	GI50 (M14)	GI50 (LOX IMVI)
CS(=O)(=O)Nc1ccc(Nc2c3ccccc3nc3ccccc23)cc1	0.381 µM (active)	3.46 µM (inactive)	1.89 µM (inactive)	2.41 µM (inactive)	4.93 µM (inactive)	2.57 µM (inactive)	4.39 µM (inactive)	1.34 µM (inactive)	4.17 µM (inactive)	1.36 µM (inactive)	0.491 µM (active)	1.83 µM (inactive)	4.4 µM (inactive)	1.71 µM (inactive)	1.08 µM (active)	2.15 µM (inactive)	4.55 µM (inactive)	1.11 µM (active)	3.37 µM (inactive)	1.26 µM (inactive)
C=C1CC2(OC1=O)c1ccccc1CCc1ccccc12	1.71 µM (inactive)	5.69 µM (inactive)	17.7 µM (inactive)	2.07 µM (inactive)	1.89 µM (inactive)	2.84 µM (inactive)	14.5 µM (inactive)	6.4 µM (inactive)	1.93 µM (inactive)	3.82 µM (inactive)	1.75 µM (inactive)	1.44 µM (inactive)	1.84 µM (inactive)	13.1 µM (inactive)	26.1 µM (inactive)	1.94 µM (inactive)	7.38 µM (inactive)	1.59 µM (inactive)	1.97 µM (inactive)	1.46 µM (inactive)
CC[C@H](C)c1occ2c(O)c(C(=O)O)c(=O)cc-2c1C	26.7 µM (inactive)	55.6 µM (inactive)	26.1 µM (inactive)	20.7 µM (inactive)	19.5 µM (inactive)	40.8 µM (inactive)	19.5 µM (inactive)	17.3 µM (inactive)	24.8 µM (inactive)	30.3 µM (inactive)	37.8 µM (inactive)	18.8 µM (inactive)	25.7 µM (inactive)	18.3 µM (inactive)	24.9 µM (inactive)	17.5 µM (inactive)	30.8 µM (inactive)	20.4 µM (inactive)	31.5 µM (inactive)	15.6 µM (inactive)
